From US20140155580A1, “TRANSGENIC AVES PRODUCING HUMAN POLYCLONAL ANTIBODIES” (Synageva BioPharma Corp., priority 2003, published 2014)

System: chicken embryonic stem cells
Assay: Titration kill curve: cES cells in culture exposed to puromycin or neomycin
Type: cell-based
Set-up: key to Morphology of cES cells: ES: ES cells are present.; diff: ES cells are differentiated.; gone: no morphologically recognizable cells are present
Experimental: In a preferred embodiment, the concentration of puromycin required for selecting transfected cells is calculated as a titration kill curve. Titration kill curves for chicken embryonic stem cells are established by exposing cells in culture to puromycin concentrations varying from 0.0 to 1.0 μg/ml for 10 days (Table 7) and neomycin concentrations varying from 0.0 to 200 μg/ml (Table 8). The medium is changed every 2 days and fresh puromycin or neomycin is added. […] Puromycin concentrations of 0.3-1.0 μg/ml are used for selection of the transfected cultures. Neomycin concentrations over 40 μg/ml eliminated all cES cells within 7 days (Table 8).

## neomycin
Neomycin 10 μg/ml, day 1 under selection
  Morphology of cES cells: ES
Neomycin 10 μg/ml, day 2 under selection
  Morphology of cES cells: ES
Neomycin 10 μg/ml, day 3 under selection
  Morphology of cES cells: ES
Neomycin 10 μg/ml, day 4 under selection
  Morphology of cES cells: ES
Neomycin 10 μg/ml, day 5 under selection
  Morphology of cES cells: ES
Neomycin 10 μg/ml, day 6 under selection
  Morphology of cES cells: ES
Neomycin 10 μg/ml, day 7 under selection
  Morphology of cES cells: ES
Neomycin 10 μg/ml, day 8 under selection
  Morphology of cES cells: ES
Neomycin 10 μg/ml, day 9 under selection
  Morphology of cES cells: ES
Neomycin 10 μg/ml, day 10 under selection
  Morphology of cES cells: ES
Neomycin 20 μg/ml, day 1 under selection
  Morphology of cES cells: ES
Neomycin 20 μg/ml, day 2 under selection
  Morphology of cES cells: ES
Neomycin 20 μg/ml, day 3 under selection
  Morphology of cES cells: ES
Neomycin 20 μg/ml, day 4 under selection
  Morphology of cES cells: ES
Neomycin 20 μg/ml, day 5 under selection
  Morphology of cES cells: ES
Neomycin 20 μg/ml, day 6 under selection
  Morphology of cES cells: ES
Neomycin 20 μg/ml, day 7 under selection
  Morphology of cES cells: ES
Neomycin 20 μg/ml, day 8 under selection
  Morphology of cES cells: ES
Neomycin 20 μg/ml, day 9 under selection
  Morphology of cES cells: ES
Neomycin 20 μg/ml, day 10 under selection
  Morphology of cES cells: ES
Neomycin 30 μg/ml, day 1 under selection
  Morphology of cES cells: ES
Neomycin 30 μg/ml, day 2 under selection
  Morphology of cES cells: ES
Neomycin 30 μg/ml, day 3 under selection
  Morphology of cES cells: ES
Neomycin 30 μg/ml, day 4 under selection
  Morphology of cES cells: ES
Neomycin 30 μg/ml, day 5 under selection
  Morphology of cES cells: ES
Neomycin 30 μg/ml, day 6 under selection
  Morphology of cES cells: ES
Neomycin 30 μg/ml, day 9 under selection
  Morphology of cES cells: Diff
Neomycin 40 μg/ml, day 1 under selection
  Morphology of cES cells: ES
Neomycin 40 μg/ml, day 2 under selection
  Morphology of cES cells: ES
Neomycin 40 μg/ml, day 3 under selection
  Morphology of cES cells: ES
Neomycin 40 μg/ml, day 4 under selection
  Morphology of cES cells: ES
Neomycin 40 μg/ml, day 7 under selection
  Morphology of cES cells: dead
Neomycin 40 μg/ml, day 8 under selection
  Morphology of cES cells: gone
Neomycin 40 μg/ml, day 9 under selection
  Morphology of cES cells: gone
Neomycin 40 μg/ml, day 10 under selection
  Morphology of cES cells: gone
Neomycin 50 μg/ml, day 1 under selection
  Morphology of cES cells: ES
Neomycin 50 μg/ml, day 2 under selection
  Morphology of cES cells: ES
Neomycin 50 μg/ml, day 3 under selection
  Morphology of cES cells: ES
Neomycin 50 μg/ml, day 8 under selection
  Morphology of cES cells: gone
Neomycin 50 μg/ml, day 9 under selection
  Morphology of cES cells: gone
Neomycin 50 μg/ml, day 10 under selection
  Morphology of cES cells: gone
Neomycin 60 μg/ml, day 1 under selection
  Morphology of cES cells: ES
Neomycin 60 μg/ml, day 2 under selection
  Morphology of cES cells: ES
Neomycin 60 μg/ml, day 3 under selection
  Morphology of cES cells: ES
Neomycin 60 μg/ml, day 4 under selection
  Morphology of cES cells: gone
Neomycin 60 μg/ml, day 5 under selection
  Morphology of cES cells: gone
Neomycin 60 μg/ml, day 6 under selection
  Morphology of cES cells: gone
Neomycin 60 μg/ml, day 7 under selection
  Morphology of cES cells: gone
Neomycin 60 μg/ml, day 8 under selection
  Morphology of cES cells: gone
Neomycin 60 μg/ml, day 9 under selection
  Morphology of cES cells: gone
Neomycin 60 μg/ml, day 10 under selection
  Morphology of cES cells: gone
Neomycin 100 μg/ml, day 2 under selection
  Morphology of cES cells: Diff
Neomycin 100 μg/ml, day 3 under selection
  Morphology of cES cells: dead
Neomycin 100 μg/ml, day 4 under selection
  Morphology of cES cells: gone
Neomycin 100 μg/ml, day 5 under selection
  Morphology of cES cells: gone
Neomycin 100 μg/ml, day 6 under selection
  Morphology of cES cells: gone
Neomycin 100 μg/ml, day 7 under selection
  Morphology of cES cells: gone
Neomycin 100 μg/ml, day 8 under selection
  Morphology of cES cells: gone
Neomycin 100 μg/ml, day 9 under selection
  Morphology of cES cells: gone
Neomycin 100 μg/ml, day 10 under selection
  Morphology of cES cells: gone
Neomycin 150 μg/ml, day 1 under selection
  Morphology of cES cells: dead
Neomycin 150 μg/ml, day 2 under selection
  Morphology of cES cells: dead
Neomycin 150 μg/ml, day 3 under selection
  Morphology of cES cells: gone
Neomycin 150 μg/ml, day 4 under selection
  Morphology of cES cells: gone
Neomycin 150 μg/ml, day 5 under selection
  Morphology of cES cells: gone
Neomycin 150 μg/ml, day 6 under selection
  Morphology of cES cells: gone
Neomycin 150 μg/ml, day 7 under selection
  Morphology of cES cells: gone
Neomycin 150 μg/ml, day 8 under selection
  Morphology of cES cells: gone
Neomycin 150 μg/ml, day 9 under selection
  Morphology of cES cells: gone
Neomycin 150 μg/ml, day 10 under selection
  Morphology of cES cells: gone
Neomycin 200 μg/ml, day 1 under selection
  Morphology of cES cells: dead
Neomycin 200 μg/ml, day 2 under selection
  Morphology of cES cells: gone
Neomycin 200 μg/ml, day 3 under selection
  Morphology of cES cells: gone
Neomycin 200 μg/ml, day 4 under selection
  Morphology of cES cells: gone
Neomycin 200 μg/ml, day 5 under selection
  Morphology of cES cells: gone
Neomycin 200 μg/ml, day 6 under selection
  Morphology of cES cells: gone
Neomycin 200 μg/ml, day 7 under selection
  Morphology of cES cells: gone
Neomycin 200 μg/ml, day 8 under selection
  Morphology of cES cells: gone
Neomycin 200 μg/ml, day 9 under selection
  Morphology of cES cells: gone
Neomycin 200 μg/ml, day 10 under selection
  Morphology of cES cells: gone
Neomycin concentrations over 40 μg/ml
  Time in which all cES cells were eliminated: ≤ 7 days
